Consider 1 compound from patent US20240016894A1, “METHODS AND MATERIALS FOR AMELIORATING CREATINE DEFICIENCY DISORDERS” (The Regents of the University of California, priority 2022, published 2024).

This experiment relates to Gamt−/− mice. The experiment is described as follows: (18F)-FDG PET brain glucose uptake. The note with it: Gamt-deficient mice; sequence regular chow (5.24±0.76), oral creatine supplementation, then AAV (regular chow only). Format: in vivo, mouse. From the text: Considering the importance of the creatine/phosphocreatine shuttle to cells with high-energy expenditures, we examined the uptake of glucose to the brain in Gamt-deficient mice. Fluorodeoxyglucose (18(F)-FDG)-positron-emission tomography (PET) is a well-established non-invasive imaging tool for monitoring changes in cerebral brain glucose metabolism in vivo. To examine restoration of hepatic Gamt and its effect as a treatment strategy in GAMT deficiency, we sought to examine the brain of this preclinical model. By measuring cerebral glucose metabolism with (18F)-FDG-PET we can detect neuronal dysfunction in vivo as brain glucose metabolism is determined by synaptic activity mainly in order to restore membrane potentials (26). To semi-quantitate tissue activity, we determined the activity divided by the decay-corrected activity injected into the mouse; this ratio is defined as the percent-injected dose per cubic centimeter in tissue (% ID/cc). […]
We evaluated if there was a substantial improvement in brain metabolism with restoration of GAMT activity in hepatocytes with a gene therapy approach and compared this to present day therapy with oral creatine supplementation. […]
Animals were anesthetized with 1.5% vaporized isoflurane, and injected with (18F)-FDG via tail vein. […] Co-registered PET/CT data were analyzed and quantified using AMIDE software. […]

Molecules are shown by their SMILES.

As to `CN(CC(=O)O)C(=N)N` [creatine], the “Brain (18F)-FDG uptake, each mouse its own control” value is given as 5.26±1.10 % ID/cc.
